Read-outs that look alike come from different tables or passages of the source.
Assays:
[1] = system: human iPSC-derived cardiomyocytes (iCells); conditions: for IB20: lowest concentration producing IBR ≥0.2 (≥20% irregular beats over one minute); for amplitude of impedance: amplitude of each beat
Procedure: Cell Culture. hiPSC-derived cardiomyocytes (iCells) from Cellular Dynamics International (CDT) were thawed in Plating Media (CDI and plated as single cells onto 0.1% Gelatin (Sigma)-coated, 6-well tissue-culture plates (Corning) at a density of 2.2−2.7×10^6 cells per well. Cells were cultured for 3-5 d at 37° C., 7% CO2 prior to re-plating onto xCELLigence® 96-well cardio e-plates (ACEA/Roche Applied Sciences) or microelectrode arrays (MEAs, Multichannel Systems). The media was changed every 2 d after plating using Maintenance Media (CDI), pre-warmed to 37° C. to minimize the temperature shock on cells.
xCELLigence® cardio e-plates and MEA Re-plating. iCells cultured in 6-well plates were harvested by twice washing in dPBS (GIBCO) then lifted with 0.5% Trypsin-EDTA (GIBCO), incubated at 37° C., 7% CO2. Trypsin was quenched with Maintenance Media and cells were collectively centrifuged at 69 g for 5 minutes and resuspended in Maintenance Media to yield the target density. For cardio e-plate reseeding, cells were plated at a target density of 5×10^4 per well, estimating 80% seeding efficiency. Cardio e-plates were coated with 0.1% Gelatin for 3 h at 37° C. Background impedance measurements for cardio e-plates were made with the final volume of media equilibrated to 37° C. but without cells, immediately prior to reseeding the cells. The cells were monitored every 1 h by a 20 s sweep duration by the xCELLigence® RTCA cardio system at its maximum sampling rate (77 Hz) prior to initiating experimentation.
xCELLigence® and MEA Experimentation. Compound stocks were prepared in DMSO or dH2O at 1000 fold the highest tested concentration. For xCELLigence® experimentation, compound stocks were serially diluted in Maintenance Media in a separate 96-well tissue culture plate (Corning) at twice the target concentration. The dilution plate was incubated and equilibrated to 37° C. prior to cell exposure. […] All compounds were tested as n≧3 on multiple cardio e-plates. The xCELLigence® monitored changes to the beating for periodic 20 s sweep durations at 77 Hz.
Data Analysis. Data were first analyzed by the built-in analysis modules of xCELLigence® and MEAs systems, initial results were then exported into in-house developed Microsoft Excel templates for further semi-auto analysis. […] To calculate the “Predicted Proarrhythmic Score” (PPS), we first determined a “Irregular Beat Ratio” (IBR). The IBR was defined as the ratio of arrhythmic beat counts to the total number of beats over one minute. IBR values for each concentration at each selected time-point was averaged from 3 to 5 e-plates. The lowest concentration of drug, that generated a IBR value ≧0.2 was determined and termed “IB20.” Finally, the maximal therapeutic plasma concentration (Cmax) was divided by the IB20 to arrive at the PPS. A PPS >100 is a level of concern for drug-induced arrhythmia. […]

[2] = maximum therapeutic plasma concentration, cited from earlier work
[3] = system: TdP; conditions: clinical; cited from earlier work
[4] = system: QT interval; conditions: cited from earlier work
[5] = system: human iPSC-derived cardiomyocytes (iCells); assay: Multi-electrode array (MEA) field potential recording of iPSC-derived cardiomyocytes; format: cell-based; conditions: iPSC-CMs
Procedure: MEAs were prepared according to manufacturer guidelines. Briefly, microelectrodes in 6-well MEA dishes were coated with 2 μL Fibronectin (Sigma) diluted 1:20 and incubated at 37° C. for 3 h. Cells were reseeded at the target density of 3×10^4 cells in a 2 μL delivery to microelectrodes and incubated at 37° C., 7% CO2 for 3 h prior to filling each well with Maintenance Media. The media of cardio e-plates and MEAs were changed every 2 d thereafter, using Maintenance Media warmed to 37° C. Cells were cultured for 3-7 d prior to conducting an experiment on cardio e-plates or MEAs.
The wells of the MEAs had half the volume in each well replaced with fresh warm Maintenance Media, immediately prior to experimentation so as to be consistent with the media replacement for xCELLigence® experimentation. MEAs were allowed a 15 min equilibration period within the MEA recorder system (Multichannel Systems), prior to compound exposure. The temperature was maintained at 37° C. and a constant air flow of 95% O2, 5% CO2, was perfused over the MEAs. Compound additions were made in serially increasing additions, recording for 15 min at each concentration. All compounds were tested as n≧4 wells.

[6] = target: hERG channel (Homo sapiens, UniProt Q12809); conditions: cited from earlier work
Chain of hERG channel (Q12809 whole entry): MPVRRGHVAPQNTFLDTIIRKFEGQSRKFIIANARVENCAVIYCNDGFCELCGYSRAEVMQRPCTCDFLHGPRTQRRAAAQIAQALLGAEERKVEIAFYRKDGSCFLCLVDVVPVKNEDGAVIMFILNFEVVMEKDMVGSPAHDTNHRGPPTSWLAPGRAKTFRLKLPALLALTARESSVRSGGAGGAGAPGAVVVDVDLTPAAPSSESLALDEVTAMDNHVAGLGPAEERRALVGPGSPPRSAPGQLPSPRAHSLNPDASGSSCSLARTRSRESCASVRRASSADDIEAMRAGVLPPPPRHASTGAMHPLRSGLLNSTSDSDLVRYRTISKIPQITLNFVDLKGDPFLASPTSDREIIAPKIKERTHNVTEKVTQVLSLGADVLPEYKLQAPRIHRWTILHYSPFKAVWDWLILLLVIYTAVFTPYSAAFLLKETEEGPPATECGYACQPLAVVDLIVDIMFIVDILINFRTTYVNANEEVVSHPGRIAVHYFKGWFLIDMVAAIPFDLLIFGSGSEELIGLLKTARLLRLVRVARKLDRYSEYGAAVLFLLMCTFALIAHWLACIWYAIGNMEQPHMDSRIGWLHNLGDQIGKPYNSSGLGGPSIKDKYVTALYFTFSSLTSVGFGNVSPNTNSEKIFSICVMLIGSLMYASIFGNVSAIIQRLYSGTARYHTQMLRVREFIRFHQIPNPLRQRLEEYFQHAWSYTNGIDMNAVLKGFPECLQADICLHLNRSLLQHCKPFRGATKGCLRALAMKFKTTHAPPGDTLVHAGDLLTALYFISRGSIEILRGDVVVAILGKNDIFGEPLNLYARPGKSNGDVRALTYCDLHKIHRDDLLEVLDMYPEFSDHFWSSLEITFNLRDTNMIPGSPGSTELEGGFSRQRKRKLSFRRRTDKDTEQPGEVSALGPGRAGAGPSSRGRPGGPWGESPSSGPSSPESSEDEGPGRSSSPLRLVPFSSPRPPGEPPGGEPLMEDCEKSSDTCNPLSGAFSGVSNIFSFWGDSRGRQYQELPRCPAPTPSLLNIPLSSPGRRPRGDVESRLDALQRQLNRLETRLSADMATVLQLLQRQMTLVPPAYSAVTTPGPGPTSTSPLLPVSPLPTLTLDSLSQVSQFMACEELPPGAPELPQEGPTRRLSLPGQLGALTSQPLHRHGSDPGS

[7] = Table I, Cmax/IB20, cut-off >100 as level of concern

Compound: CCN1C[C@]2(COC)[C@H](O)C[C@H](OC)[C@@]34[C@@H]5C[C@@]6(O)[C@H](OC(=O)c7ccccc7)[C@@H]5[C@@](OC(C)=O)([C@@H]([C@H](OC)[C@H]23)[C@@H]14)[C@@H](O)[C@@H]6OC [Aconitine]
- concentration showing arrhythmia relative to the efficacious concentration [1]: arrhythmia at concentrations less than the efficacious concentration
- PPS [1, 7]: 2567
- IB20 ([1]; Table I): 0.03 µM
- IB20 ([1]; Table II): 0.03 µM
- PPS ([1]; human): 0.4
- Cmax ([2]; Table I): 77 nM
- Cmax ([2]; Table II): 77 nM

Compound: COc1cc2nc(N(C)CCCNC(=O)C3CCCO3)nc(N)c2cc1OC (centres unmarked) [Alfuzosin]
- TdP liability [3]: free of TdP
- effect at concentrations substantially higher than employed in vivo [1]: beat rate reduction and appearance of arrhythmic beats
- Cmax ([2]; Table I): 56 nM
- Cmax ([2]; Table II): 56 nM
- QT prolongation ([4]; in patients / in vivo): induce QT prolongation

Compound: CCCCc1oc2ccccc2c1C(=O)c1cc(I)c(OCCN(CC)CC)c(I)c1 [Amiodarone]
- TdP liability [3]: very low risk of TdP

Compound: CC1(C)S[C@@H]2[C@H](NC(=O)[C@H](N)c3ccc(O)cc3)C(=O)N2[C@H]1C(=O)O [Amoxicillin]
- TdP liability [3]: devoid of QT prolongation and TdP liability
- IB20 ([1]; Table I): >1,000 μM
- IB20 ([1]; Table II): >1,000,000 nM
- Cmax ([2]; Table I): 17000 nM
- Cmax ([2]; Table II): 17000 nM
- QT prolongation ([4]; in patients / in vivo): devoid of QT prolongation

Compound: CC(=O)Oc1ccccc1C(=O)O [Aspirin]
- TdP liability [3]: devoid of QT prolongation and TdP liability
- Cmax ([2]; Table I): 10000 nM
- Cmax ([2]; Table II): 10000 nM
- QT prolongation ([4]; in patients / in vivo): devoid of QT prolongation

Compound: COc1ccc(CCN2CCC(Nc3nc4ccccc4n3Cc3ccc(F)cc3)CC2)cc1 [Astemizole]
- Cmax ([2]; Table I): 8 nM
- Cmax ([2]; Table II): 8 nM

Compound: C[C@H](CS)C(=O)N1CCC[C@H]1C(=O)O [Captopril]
- PPS [1, 7]: <25
- Cmax ([2]; Table I): 2470 nM
- Cmax ([2]; Table II): 2470 nM
- QT prolongation ([4]; human, in vivo): devoid of QT prolongation

Compound: COc1cc(N)c(Cl)cc1C(=O)NC1CCN(CCCOc2ccc(F)cc2)CC1OC (centres unmarked) [Cisapride]
- alterations in beat patterns / arrhythmic beats [1]: Irregular beating patterns were observed
- Cmax ([2]; Table I): 129 nM
- Cmax ([2]; Table II): 129 nM

Compound: CN(CCOc1ccc(NS(C)(=O)=O)cc1)CCc1ccc(NS(C)(=O)=O)cc1 [Dofetilide]
- PPS [1, 7]: 2000
- PPS ([1]; human): 0.5
- Cmax ([2]; Table I): 6 nM
- Cmax ([2]; Table II): 6 nM

Compound: Cc1cccc(CCN2CCC(C(=O)c3ccc(NS(C)(=O)=O)cc3)CC2)n1 [E-4031]
- beat rate ([1]; iPSC-CMs, impedance): dose-dependent reduction in beat rate

Compound: CC[C@H]1OC(=O)[C@H](C)[C@@H](O[C@H]2C[C@@](C)(OC)[C@@H](O)[C@H](C)O2)[C@H](C)[C@@H](O[C@@H]2O[C@H](C)C[C@H](N(C)C)[C@H]2O)[C@](C)(O)C[C@@H](C)C(=O)[C@H](C)[C@@H](O)[C@]1(C)O [Erythromycin]
- alterations in beat patterns / arrhythmic beats [1]: Irregular beating patterns were observed
- Cmax ([2]; Table I): 34100 nM
- Cmax ([2]; Table II): 34100 nM

Compound: CNCCC(Oc1ccc(C(F)(F)F)cc1)c1ccccc1 (centres unmarked) [Fluoxetine]
- TdP liability [3]: very low risk of TdP
- Cmax ([2]; Table I): 485 nM
- Cmax ([2]; Table II): 485 nM

Compound: CC(C)NCC(O)c1ccc(O)c(O)c1 (centres unmarked) [Isoproterenol]
- amplitude of impedance ([1]; iPSC-CMs): increased
- beat rate ([1]; iPSC-CMs, impedance): increased
- beat rate in MEA [5]: increased

Compound: COc1c(N2C[C@@H]3CCCN[C@@H]3C2)c(F)cc2c(=O)c(C(=O)O)cn(C3CC3)c12 [Moxifloxacin]
- alterations in beat patterns / arrhythmic beats [1]: not torsadogenic
- PPS [1, 7]: <103
- PPS ([1]; human): >10
- hERG inhibition [6]: inhibit hERG
- Cmax ([2]; Table I): 10300 nM
- Cmax ([2]; Table II): 10300 nM
- QT prolongation ([4]; human, in vivo): induce QT prolongation

Compound: C[C@@H]1O[C@@H](O[C@H]2C[C@@H](O)[C@]3(CO)[C@H]4[C@H](O)C[C@]5(C)[C@@H](C6=CC(=O)OC6)CC[C@]5(O)[C@@H]4CC[C@]3(O)C2)[C@H](O)[C@H](O)[C@H]1O [Ouabain]
- PPS [1, 7]: 5667
- IB20 ([1]; Table I): 0.03 µM
- IB20 ([1]; Table II): 0.03 µM
- PPS ([1]; human): 0.2
- alterations in beat patterns / arrhythmic beats ([1]; human iPSC-CMs): Irregular beating patterns were observed
- amplitude of impedance ([1]; iPSC-CMs): increased
- Cmax ([2]; Table I): 170 nM
- Cmax ([2]; Table II): 170 nM
- amplitude in MEA ([5]; for nifedipine Ca2+-peak amplitude): increased

Compound: C=C[C@H]1C[N@@]2CC[C@H]1C[C@@H]2[C@@H](O)c1ccnc2ccc(OC)cc12 [Quinidine]
- alterations in beat patterns / arrhythmic beats [1]: Irregular beating patterns were observed
- PPS [1, 7]: 2158
- PPS ([1]; human): 0.5
- Cmax ([2]; Table I): 21600 nM
- Cmax ([2]; Table II): 21600 nM

Compound: COc1ccccc1OCC(O)CN1CCN(CC(=O)Nc2c(C)cccc2C)CC1 (centres unmarked) [Ranolazine]
- TdP liability [3]: free of TdP
- alterations in beat patterns / arrhythmic beats [1]: not torsadogenic
- hERG inhibition [6]: inhibit hERG
- Cmax ([2]; Table I): 6010 nM
- Cmax ([2]; Table II): 6010 nM
- QT prolongation ([4]; in patients / in vivo): induce QT prolongation

Compound: CS(=O)(=O)c1ccc(C2=C(c3ccccc3)C(=O)OC2)cc1 [Rofecoxib]
- TdP liability [3]: devoid of QT prolongation and TdP liability
- Cmax ([2]; Table I): 1020 nM
- Cmax ([2]; Table II): 1020 nM
- QT prolongation ([4]; in patients / in vivo): devoid of QT prolongation

Compound: CC(C)NCC(O)c1ccc(NS(C)(=O)=O)cc1 (centres unmarked) [Sotalol]
- alterations in beat patterns / arrhythmic beats [1]: Irregular beating patterns were observed
- Cmax ([2]; Table I): 14700 nM
- Cmax ([2]; Table II): 14700 nM

Compound: CC(C)(C)c1ccc(C(O)CCCN2CCC(C(O)(c3ccccc3)c3ccccc3)CC2)cc1 (centres unmarked) [Terfenadine]
- Cmax ([2]; Table I): 300 nM
- Cmax ([2]; Table II): 300 nM

Compound: NC1=N[C@H](O)[C@H]2[C@H]3O[C@]4(O)O[C@@H]([C@@H](O)[C@@]2(N1)[C@@H]4O)[C@]3(O)CO [Tetrodotoxin]
- beat rate [1]: reduction in beat rate

Compound: CCN(c1ccccc1)c1cc(=NC)n(C)c(C)n1.Cl [ZD7288]
- beat rate ([1]; iPSC-CMs, impedance): reduction in beat rate

Compound: Cc1ccc2c(c1)C(=O)C1(O)CCN(c3ccccc3)C1=N2 (centres unmarked) [blebbistatin]
- cardiomyocyte beating using impedance ([1]; iPSC-CMs, myosin II inhibition): no cardiomyocyte beating was observed
- electrophysiology of the cardiomyocytes detected by MEA [5]: remained unchanged

— patent publication US20120107861A1, “METHOD OF DETERMINING RISK OF ARRHYTHMIA” (priority 2010, published 2012)
